AC50, CC50 and EC50 data for 39 compounds are collected here from ChEMBL document CHEMBL1201862, “PubChem BioAssay data set” (2004).

Active and inactive are the calls of the source. Where only a bound is given, the exact number is not on record here.

In assay [1] the target is Cytochrome P450 2D6 (Homo sapiens, UniProt P10635).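 Note: CYP2D6 member of a cytochrome P450 panel assay.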
The target in assay [2] is Cytochrome P450 3A4 (Homo sapiens, UniProt P08684).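 Note: CYP3A4 tested as one member of a cytochrome P450 panel screen.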
Cytochrome P450 3A4, sequence (P08684 whole entry): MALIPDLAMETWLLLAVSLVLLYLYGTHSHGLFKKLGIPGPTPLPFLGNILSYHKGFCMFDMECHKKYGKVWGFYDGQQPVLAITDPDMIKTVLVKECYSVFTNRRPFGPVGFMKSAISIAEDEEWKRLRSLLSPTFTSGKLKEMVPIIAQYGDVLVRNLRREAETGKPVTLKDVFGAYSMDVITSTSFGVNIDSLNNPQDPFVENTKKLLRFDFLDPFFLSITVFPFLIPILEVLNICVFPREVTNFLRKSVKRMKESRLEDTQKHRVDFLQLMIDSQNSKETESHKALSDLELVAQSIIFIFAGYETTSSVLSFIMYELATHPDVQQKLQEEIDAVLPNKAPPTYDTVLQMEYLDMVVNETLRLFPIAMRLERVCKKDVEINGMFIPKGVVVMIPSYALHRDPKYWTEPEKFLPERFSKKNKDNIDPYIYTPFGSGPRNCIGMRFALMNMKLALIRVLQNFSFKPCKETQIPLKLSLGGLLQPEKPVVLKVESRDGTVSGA
Assay [3] concerns the target Cytochrome P450 2C9 (Homo sapiens, UniProt P11712).
Assay [4] is described as follows: viability of uninfected HEp-2 cells – cell-based, HTS, cytotoxicity control for RSV inhibitor project, dose response (AID 2410). The class given is functional. As to conditions: human respiratory syncytial virus.
In assay [5] the target is Cytochrome P450 2C19 (Homo sapiens, UniProt P33261). In words: Cytochrome panel assay with activity outcomes. Panel member name: p450-cyp2c19 Compounds with AC50 equal or less than 10 uM are considered active. It is filed as functional. As to conditions: read-out: AC50.
Cytochrome P450 2C19, sequence (P33261 whole entry): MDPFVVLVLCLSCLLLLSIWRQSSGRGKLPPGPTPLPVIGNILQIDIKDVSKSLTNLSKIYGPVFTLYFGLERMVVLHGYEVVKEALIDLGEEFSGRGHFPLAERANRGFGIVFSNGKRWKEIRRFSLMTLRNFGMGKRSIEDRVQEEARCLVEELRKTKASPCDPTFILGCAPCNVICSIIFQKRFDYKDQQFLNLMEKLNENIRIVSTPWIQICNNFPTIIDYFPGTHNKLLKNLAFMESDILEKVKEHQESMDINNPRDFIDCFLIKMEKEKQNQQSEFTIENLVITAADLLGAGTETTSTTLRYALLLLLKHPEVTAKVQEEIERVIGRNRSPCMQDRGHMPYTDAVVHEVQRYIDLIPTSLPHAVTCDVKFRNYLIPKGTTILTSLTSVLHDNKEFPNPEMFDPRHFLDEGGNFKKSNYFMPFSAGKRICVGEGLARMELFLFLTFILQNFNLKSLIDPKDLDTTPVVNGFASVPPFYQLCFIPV
In assay [6] the target is T1, Cytochrome P450 1A2 (Homo sapiens, UniProt P05177).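 Note: PubChem cytochrome P450 panel assay, CYP1A2 panel member.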
T1 sequence (P05177 whole entry): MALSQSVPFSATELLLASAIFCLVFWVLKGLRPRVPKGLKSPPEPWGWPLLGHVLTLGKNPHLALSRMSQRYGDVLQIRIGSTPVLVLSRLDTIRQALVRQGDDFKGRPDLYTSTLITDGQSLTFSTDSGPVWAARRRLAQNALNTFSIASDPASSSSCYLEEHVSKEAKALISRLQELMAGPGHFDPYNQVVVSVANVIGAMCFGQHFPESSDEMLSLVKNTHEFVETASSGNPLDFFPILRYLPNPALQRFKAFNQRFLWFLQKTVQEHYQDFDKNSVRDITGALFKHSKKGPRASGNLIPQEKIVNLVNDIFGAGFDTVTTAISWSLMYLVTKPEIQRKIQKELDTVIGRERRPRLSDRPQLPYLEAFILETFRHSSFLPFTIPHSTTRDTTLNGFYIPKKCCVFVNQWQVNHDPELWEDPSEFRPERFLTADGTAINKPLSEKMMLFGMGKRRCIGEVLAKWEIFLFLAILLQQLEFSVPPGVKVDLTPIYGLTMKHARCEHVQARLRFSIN

A short description of assay [7]: Trypanosoma cruzi growth suppression in host cells – NIH3T3 host cells, beta-gal luminescence, confirmation (AID 2044).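 Note: intracellular parasites grown in NIH/3T3 mouse fibroblasts as host cells; luminescent beta-galactosidase reporter signal from transgenic T. cruzi replicating inside host cells; inhibitors lower the luminescence signal.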 It is filed as functional, cell-based.
The nature of assay [8]: NIH3T3 cell viability loss – ATP luminescence, mouse fibroblasts, counter-screen, dose response (AID 2010).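 Note: cells exposed to compound for about 90 hours before reading.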 The class given is functional, cell-based.
Assay [9] concerns the target T2, Corticotropin-releasing factor receptor 2/Corticotropin-releasing factor-binding protein (Homo sapiens, UniProt P24387+Q13324).
T2 sequence (Q13324 whole entry): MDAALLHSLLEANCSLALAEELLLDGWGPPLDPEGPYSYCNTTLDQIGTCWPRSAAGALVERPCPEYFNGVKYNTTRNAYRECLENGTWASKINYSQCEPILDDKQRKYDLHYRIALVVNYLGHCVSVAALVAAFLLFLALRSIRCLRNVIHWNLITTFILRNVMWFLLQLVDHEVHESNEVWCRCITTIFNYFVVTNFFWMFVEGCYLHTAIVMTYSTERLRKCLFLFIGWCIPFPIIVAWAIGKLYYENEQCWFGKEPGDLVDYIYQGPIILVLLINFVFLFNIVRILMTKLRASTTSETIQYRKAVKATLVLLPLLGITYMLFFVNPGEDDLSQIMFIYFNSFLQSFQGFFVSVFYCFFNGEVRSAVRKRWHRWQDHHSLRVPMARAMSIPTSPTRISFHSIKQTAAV
T2 sequence (P24387 whole entry): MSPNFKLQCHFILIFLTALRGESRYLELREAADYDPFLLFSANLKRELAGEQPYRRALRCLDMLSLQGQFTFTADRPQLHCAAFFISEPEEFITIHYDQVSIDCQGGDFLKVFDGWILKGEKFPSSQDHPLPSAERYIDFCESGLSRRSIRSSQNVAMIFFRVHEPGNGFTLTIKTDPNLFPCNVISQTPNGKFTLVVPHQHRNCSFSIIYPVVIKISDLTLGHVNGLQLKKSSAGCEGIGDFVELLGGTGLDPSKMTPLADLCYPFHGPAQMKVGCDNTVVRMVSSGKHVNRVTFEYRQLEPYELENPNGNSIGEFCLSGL
In words: activators of CRF receptor 2 with binding protein – uHTS hits, confirmation (AID 602473). The class given is functional. As to conditions: read-out: EC50_Mean.

Cytochrome P450 2C9, sequence (P11712 whole entry): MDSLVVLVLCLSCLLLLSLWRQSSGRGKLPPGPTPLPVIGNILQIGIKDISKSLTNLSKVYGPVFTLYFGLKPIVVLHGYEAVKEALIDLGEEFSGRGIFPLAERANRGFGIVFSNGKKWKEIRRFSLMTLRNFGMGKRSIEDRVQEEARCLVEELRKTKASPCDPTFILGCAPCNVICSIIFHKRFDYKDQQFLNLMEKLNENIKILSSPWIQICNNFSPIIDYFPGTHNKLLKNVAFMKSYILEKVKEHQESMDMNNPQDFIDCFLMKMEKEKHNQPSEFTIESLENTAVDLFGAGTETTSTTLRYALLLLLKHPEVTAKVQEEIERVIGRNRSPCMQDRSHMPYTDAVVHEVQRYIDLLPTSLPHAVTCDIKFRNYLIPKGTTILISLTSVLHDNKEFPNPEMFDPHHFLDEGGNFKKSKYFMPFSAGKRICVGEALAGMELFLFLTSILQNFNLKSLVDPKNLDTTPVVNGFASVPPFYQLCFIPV
Cytochrome P450 2D6, sequence (P10635 whole entry): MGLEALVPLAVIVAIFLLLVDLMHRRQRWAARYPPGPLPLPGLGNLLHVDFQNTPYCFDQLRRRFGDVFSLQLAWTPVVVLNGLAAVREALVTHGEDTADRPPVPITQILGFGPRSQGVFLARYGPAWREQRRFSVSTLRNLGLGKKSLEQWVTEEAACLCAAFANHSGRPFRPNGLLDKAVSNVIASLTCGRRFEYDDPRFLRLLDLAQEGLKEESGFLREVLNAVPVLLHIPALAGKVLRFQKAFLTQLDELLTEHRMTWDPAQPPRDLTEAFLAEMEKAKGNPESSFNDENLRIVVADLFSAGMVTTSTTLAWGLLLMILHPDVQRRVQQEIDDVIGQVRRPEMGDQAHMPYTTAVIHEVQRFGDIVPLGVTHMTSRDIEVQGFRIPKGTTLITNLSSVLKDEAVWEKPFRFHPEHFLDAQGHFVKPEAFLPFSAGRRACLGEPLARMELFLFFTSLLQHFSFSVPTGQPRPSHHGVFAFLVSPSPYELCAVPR

The AC50 is the concentration at which the activity in the assay is half-maximal. Turning to `CC1(c2ccccc2)NC(=O)N(CC(=O)NCCC2=CCCCC2)C1=O` (stereo unspecified), the values for the AC50 in assay [1] and in assay [2] were 22.4 µM (inconclusive) and 20 µM (inconclusive), respectively. Turning to `Cc1cccc(CNc2ccnc(-c3ccccc3C(F)(F)F)n2)c1`, the AC50 was 25.1 µM (inconclusive) in assay [1], 3.16 µM (inconclusive) in assay [2] and 1.26 µM (inconclusive) in assay [3]. By CC50 is commonly meant the concentration that lowers cell viability or growth by half. Turning to `CCOC(=O)c1c(C)[nH]c(N=Nc2ccccc2)c1C`, the half-maximal cytotoxic concentration (CC50) in assay [4] is 34.9 µM (active). `CC(=O)[C@@H]1CC[C@H]2[C@H]3CC[C@H]4C[C@@H](O)CC[C@]4(C)[C@@H]3CC[C@]12C`: the AC50 in assay [5] was 20 µM (inconclusive); in assay [6], 10 µM (inconclusive); in assay [2], 15.8 µM (inconclusive). Take `CN1CCN(C(c2ccccc2)c2ccccc2)CC1` [CYCLIZINE]: the half-maximal activity concentration (AC50) in assay [1] was 7.94 µM (inconclusive). In the case of `CC(C)C(=O)/N=c1\sc2cccc(F)c2n1C`, the 50% cytotoxic concentration (CC50) in [4] is > 50 µM (active). Turning to `Cc1ccc([N+](=O)[O-])cc1NC(=S)NC(=O)CC(C)(C)C`, the concentration at half-maximal activity (AC50) in assay [1] was 12.6 µM (inconclusive); in assay [2], 22.4 µM (inconclusive).

With `O=C(CN1CCN(S(=O)(=O)c2ccc(Br)cc2)CC1)N/N=C/c1ccc(Br)s1`, the CC50 in assay [4] is 22.2 µM (active). In addition, the EC50 in assay [7] was 2.55 µM (active); in assay [8], > 60 µM (not active).

For the compound `O=C(c1cnccn1)N1CCC2(CCCN(c3ccc(-c4ccccc4)cc3)C2)CC1`, the half-maximal activity concentration (AC50) in assay [6] is 25.1 µM (inconclusive); in [3] it was 12.6 µM (inconclusive). `COc1ccc(C(=O)N2CCC3(CCCN(C(=O)Nc4cccc(C#N)c4)C3)CC2)cc1`: the results for the AC50 in assay [5], in assay [6] and in assay [3] were 39.8 µM (inconclusive), 15.8 µM (inconclusive) and 39.8 µM (inconclusive), respectively. Turning to `Cc1c(N(C)C)c(=O)n(-c2ccccc2)n1C` [AMINOPYRINE], the AC50 in assay [6] is 10 µM (inconclusive). `CCN1C(=O)C(CC(=O)Nc2ccc(OC)cc2)N(Cc2cccs2)C1=S` (stereo unspecified): the AC50 in assay [1] is 14.1 µM (inconclusive).

Regarding `CCC(C)OC(=O)C1=C(C)NC(=O)CC1c1ccccc1OC` (stereo unspecified), the AC50 is 15.8 µM (inconclusive) in assay [6] and 39.8 µM (inconclusive) in assay [2]. As for `O=C(CN(CC1CCCO1)C(=O)CNS(=O)(=O)c1ccc(Cl)cc1)NCCc1ccccc1` (stereo unspecified), the results for the concentration at half-maximal activity (AC50) in [1] and in assay [3] were 39.8 µM (inconclusive) and 22.4 µM (inconclusive), respectively. As for `Cc1nc2cnc(N3CCN(C)CC3)nc2n(Cc2cccs2)c1=O`, the concentration at half-maximal activity (AC50) in assay [1] was 15.8 µM (inconclusive); in assay [2], 25.1 µM (inconclusive). On to `CN1CCN(c2ncc3nc(-c4ccccc4)c(=O)n(Cc4cccs4)c3n2)CC1`, for which the half-maximal activity concentration (AC50) in [6] was 15.8 µM (inconclusive). Same read-out and setting: with `NC(=O)OC[C@H](O)COc1ccc(Cl)cc1` the figure was 10 µM (inconclusive).

Take `COC(=O)c1nn(-c2ccccc2)c(Cl)c1/C=N/OCc1ccc(Cl)cc1Cl`: the half-maximal cytotoxic concentration (CC50) in assay [4] is 23.8 µM (active). The same measure, in the same setting: with `COc1ccccc1NC(=O)C1CCN(S(=O)(=O)c2ccc3c(c2)NC(=O)C(C)S3)CC1` (stereo unspecified) the figure was 20.2 µM (active); with `Cc1ccccc1[C@]1(C)ON(c2ccccc2C(F)(F)F)C1=O`, 21.8 µM (active).

`COc1ccc(C(=O)Nc2ccccc2)cc1NC(=O)c1ccc([N+](=O)[O-])cc1`: the cytotoxic concentration (CC50) in [4] is > 50 µM (active). Moreover, the EC50 was 1.33 µM (active) in assay [7] and > 60 µM (not active) in assay [8]. As for `CCOc1c2ccc(C(=O)NCc3ccc(OC(F)(F)F)cc3)cc2nn1C`, the concentration at half-maximal activity (AC50) was 20 µM (inconclusive) in [5] and 3.16 µM (inconclusive) in assay [1].

With `NC[C@@H]1O[C@H](c2ccccc2)Cc2c1ccc(O)c2O`, the AC50 in assay [1] is 31.6 µM (inconclusive); in assay [6], 15.8 µM (inconclusive); in assay [2] it was 31.6 µM (inconclusive). As for `Cc1ccc(C(=O)N/N=C/c2nc3ccccc3n2C)cc1`, the half-maximal activity concentration (AC50) is 15.8 µM (inconclusive) in [5], 3.16 µM (inconclusive) in [2] and 12.6 µM (inconclusive) in assay [3]. As to `CN1CCc2nc3ccc(F)cc3c(C(N)=O)c2C1`, the half-maximal activity concentration (AC50) in assay [5] is 39.8 µM (inconclusive); in assay [6] it was 25.1 µM (inconclusive); in assay [3], 17.8 µM (inconclusive). Regarding `CC(C)CN1CCCC2(CCN(C(=O)c3cc(C(F)(F)F)cc(C(F)(F)F)c3)CC2)C1`, the AC50 in assay [6] is 12.6 µM (inconclusive); in assay [2] it was 15.8 µM (inconclusive); in assay [3], 39.8 µM (inconclusive). On to `O=S(=O)(c1ccccc1)N1CCC[C@@]2(CCN(Cc3ccccc3)C2)C1`, for which the concentration at half-maximal activity (AC50) is 20 µM (inconclusive) in assay [6] and 1.26 µM (inconclusive) in [2]. The like results for `COc1ccccc1CN1CC[C@@]2(CCCN(C(=O)Oc3ccccc3)C2)C1` were, in that order, 10 µM (inconclusive) and 31.6 µM (inconclusive).

Turning to `O=C(N/N=C/c1ccc(Br)s1)c1c[nH]c2ccccc12`, the half-maximal cytotoxic concentration (CC50) in assay [4] is 37.3 µM (active). Still for that read-out and setting: under `O=C(COc1cccc2ccccc12)N/N=C/c1ccc(Sc2nc3ccccc3s2)o1` stands 10.8 µM (active). Regarding `CN(C)c1ncnc2ccc(-c3cccnc3)cc12`, the figures for the concentration at half-maximal activity (AC50) in assay [1] and in assay [3] were 39.8 µM (inconclusive) and 1.26 µM (inconclusive), respectively. In the case of `COc1cccc(C(=O)Nc2nc3c(s2)CN(C)CC3)c1`, the AC50 in assay [1] was 25.1 µM (inconclusive). Take `O=c1c(-c2cccc(Cl)c2)nc2cncnc2n1Cc1ccccc1`: the concentration at half-maximal activity (AC50) in assay [5] was 0.0398 µM (inconclusive); in assay [1], 39.8 µM (inconclusive).

With `CNC(=O)C1CCN(S(=O)(=O)c2c(C)noc2/C=C/c2ccc(OC)cc2)CC1`, in assay [9], the EC50 is > 53 µM (inactive). On to `CCCCCCCCC(=O)N/N=C/c1cccc(Br)c1`, for which, in assay [1], the AC50 was 7.08 µM (inconclusive). `Nc1nc(CSc2nnnn2-c2ccc(Cl)cc2)nc(N2CCOCC2)n1`: the half-maximal activity concentration (AC50) in assay [5] is 1 µM (inconclusive); in assay [1] it was 2.51 µM (inconclusive); in [6], 2.51 µM (inconclusive); in [3], 5.62 µM (inconclusive). Take `Cc1nc(N)sc1CCN` [AMTHAMINE]: the half-maximal activity concentration (AC50) in [6] was 31.6 µM (inconclusive).

For `CC(=O)O[C@H]1CC[C@@]2(C)C(=CC[C@@H]3[C@H]4CC[C@@H]([C@H](C)C(=O)O)[C@]4(C)CC[C@H]32)C1`, in [6], the AC50 is 3.16 µM (inconclusive). Same read-out and setting: with `CCCCN(CCCC)CCCOC(=O)c1ccc(N)cc1` [BUTACAINE] the figure was 10 µM (inconclusive).
